According to patent US12552835B2, “Composition comprising Regentide-012 or Regentide-013 for improving skin condition” (NINEBIOPHARM CO., LTD., priority 2020, dated 2026):
Where a SMILES comes first, the peptide text is derived from it. Bridges are numbered along the chain shown (N, C = ends).

Key:
Format in all cases: cell-based, human
[1] = test system: CCD-986Sk; experiment: Cytotoxicity evaluation (CCK8 cell viability) in fibroblasts; conditions: 5 μM or 10 μM, 48 hours, FBS-free medium
Method: (§1) The cytotoxicities of Regentide-012 and Regentide-013 prepared in Example 1 above were evaluated. Specifically, cytotoxicities were measured in HaCaT cells, which are human epidermal keratinocytes, and CCD-986Sk, which is human fibroblasts. Keratinocytes were dispensed at 3×10^3 cells/well and fibroblasts were dispensed at 5×10^3 cells/well in a 96-well plate, and then cultured in cell culture conditions for 24 hours in a medium containing 10% FBS. After culturing, Regentide-012 and Regentide-013 were added to an FBS-free medium in an amount of 5 μM or 10 μM, and these were cultured for 48 hours. Thereafter, 10 μl per well of CCK8 reaction solution (Dojindo Molecular Technologies, Kumamoto, Japan) was treated and reacted for 4 hours, and then absorbance was measured at 450 nm. The average absorbance value for each sample group was obtained, and the cell viability was evaluated by comparing it with the absorbance values of cells that had not been treated with Regentide-012 and Regentide-013 as a control group.

[2] = test system: HaCaT cells; experiment: Cytotoxicity evaluation (CCK8 cell viability) in epidermal keratinocytes; conditions: 5 μM or 10 μM, 48 hours, FBS-free medium
Method: as §1

[3] = test system: HaCaT cells; experiment: Wound recovery effect of epidermal keratinocytes (insert gap migration); conditions: 1 and 2.5 μM, FBS-free medium, 16 and 40 hours
Method: (§2) In order to confirm the wound recovery effects of Regentide-012 and Regentide-013, HaCaT cells, which are epidermal keratinocytes, were attached to a 6-well plate with an adhesive insert (Insert, Ibidi, Wisconsin, USA). The cells were dispensed at 6×10^4 cells/well in each well of the insert, and then cultured in cell culture conditions for 24 hours in a medium containing 2% FBS. Thereafter, the insert was removed and washed once using 1×DPBS. Regentide-012 and Regentide-013 were added to the medium at various concentrations (0, 1, and 2.5 μM) in an FBS-free medium, and cell images were photographed at 100 times using a microscope (Nikon Eclipse E100, Tokyo, Japan) after 16 and 40 hours.

[4] = test system: HaCaT cells; experiment: Epidermal keratinocyte growth promoting efficacy (cell number); conditions: 0.5 μM, after 8 days
Method: (§3) In order to confirm the cell proliferation abilities of Regentide-012 and Regentide-013, HaCaT cells, which are epidermal keratinocytes, were dispensed at 1×10^4 cells/well in a 6-well plate, and then cultured for 6 hours in a medium containing 10% FBS. Thereafter, Regentide-012 and Regentide-013 were added at various concentrations (0, 0.1, 0.2, or 0.5 μM) and cultured for 8 days. The medium was replaced with a medium containing Regentide-012 and Regentide-013 in various concentrations every day, and the number of cells was measured at intervals of two days.

[5] = test system: CCD986Sk cells; experiment: Fibroblast growth promoting efficacy (cell number); conditions: 0.5 μM, after 8 days
Method: as §3, with “CCD986Sk” for “HaCaT”, “fibroblasts,” for “epidermal keratinocytes,”

[6] = test system: CCD-986Sk; experiment: Wound recovery effect of fibroblasts (insert gap migration); conditions: 1 and 2.5 μM, FBS-free medium, 16 and 40 hours
Method: as §2, with “CCD-986sk, which is dermal” for “HaCaT”, “was” for “which are epidermal keratinocytes, were”, “[…] was” for “Regentide-012 and Regentide-013 were”, “measured” for “photographed”

Structure (SMILES)	cytotoxicity to fibroblasts [1]	cytotoxicity to epidermal keratinocytes [2]	cell numbers and cell migration abilities of epidermal keratinocytes [3]	cell growth rate higher than the control group [4] [%]	cell growth rate higher than the control group [5] [%]	cell numbers and cell migration abilities of fibroblasts [6]
CC[C@H](C)[C@H](NC(=O)[C@H](CCC(N)=O)NC(=O)[C@H](CCC(=O)O)NC(=O)[C@@H](N)CCCCN)C(=O)NCC(=O)N[C@@H](CCCCN)C(=O)N[C@H]1CSSC[C@@H](C(=O)N[C@@H](CCCNC(=N)N)C(=O)N[C@@H](CCCNC(=N)N)C(=O)N[C@@H](CCCCN)C(=O)N[C@@H](CCCCN)C(=O)O)NC(=O)[C@H](Cc2c[nH]c3ccccc23)NC(=O)[C@H](CCCCN)NC(=O)[C@H](CCCNC(=N)N)NC(=O)CNC(=O)[C@H](CCCNC(=N)N)NC(=O)[C@H]([C@@H](C)O)NC(=O)[C@H](CO)NC1=O [Regentide-012, KEQIGKCSTRGRKWCRRKK] (H-KEQIGKCSTRGRKWCRRKK-OH; disulfide 7-15)	not toxic	not toxic	–	–	–	–
CC[C@H](C)[C@H](NC(=O)[C@H](CCC(N)=O)NC(=O)[C@H](CCC(=O)O)NC(=O)[C@H](CCCCN)NC(C)=O)C(=O)NCC(=O)N[C@@H](CCCCN)C(=O)N[C@H]1CSSC[C@@H](C(=O)N[C@@H](CCCNC(=N)N)C(=O)N[C@@H](CCCNC(=N)N)C(=O)N[C@@H](CCCCN)C(=O)N[C@@H](CCCCN)C(N)=O)NC(=O)[C@H](Cc2c[nH]c3ccccc23)NC(=O)[C@H](CCCCN)NC(=O)[C@H](CCCNC(=N)N)NC(=O)CNC(=O)[C@H](CCCNC(=N)N)NC(=O)[C@H]([C@@H](C)O)NC(=O)[C@H](CO)NC1=O [Regentide-013, Ac-KEQIGKCSTRGRKWCRRKK-NH2] (Ac-KEQIGKCSTRGRKWCRRKK-NH2; disulfide 7-15)	not toxic	not toxic	increased the cell numbers and cell migration abilities	60.8	43.9	increased the cell numbers and cell migration abilities
